In patent publication US9278068B2, “Vesicle compositions” (Sensulin LLC, priority 2011, dated 2016):

How the values were obtained:
NF-κB = NF-κB assay for inflammation (nuclear translocation of NF-κB, immunocytochemistry, PCC); conditions: HeLa cells, 2 h, PCC between nuclear and cytoplasmic fraction of NF-κB
Method: 15,000 HeLa cells were plated in 96 well plates the night before the experiments. On the day of the experiments, the cells were treated with the boronic acids (Table 1, below) at three different concentrations (40 nM, 80 nM, and 160 nM) for 2 h. At the end of the incubation, cells were washed with phosphate buffered saline (PBS) and were fixed in 4% paraformaldehyde for 15 min and permeablized with 0.01% Triton X-100 in PBS for 10 min. The cells were washed with PBS three times. Nonspecific sites were blocked with 5% bovine serum albumin (BSA) in PBS and incubated with the Anti-NF-κB for 1 h, followed by incubation with fluorescein isothiocyanate (FITC)-labeled secondary antibody. After washing the cells at the end of the incubation, the cells were treated with 4′,6-diamidino-2-phenylindole (DAPI) for 1 min and kept at 4° C. until further analysis. Images of the cells were acquired with a Beckman-Coulter 100 automated high-throughput microscope system and analyzed using Cytseer software (Vala Sciences, CA). The co-localization of NF-κB was quantified by measuring the PCC between the nuclear and cytoplasmic fraction of the NF-κB molecule. The PCC is a measure of the overlap between the pixel intensities of the nuclear and NF-κB images of the same cell. The PCC values can range from −1 to 1. […] A negative correlation (negative PCC value) indicates an absence of nuclear translocation.

HeLa cells = assay: MTT assay for cytotoxicity; conditions: 2 h
Method: The cytotoxicity of the boronic acid derivatives from Table 1 was studied by MTT assay. 150,000 HeLa cells were plated in 96 well plates on the night before the experiments. On the day of experiments, the cells were treated with the boronic acid derivatives at three different concentrations (40 nM, 80 nM, and 160 nM) for 2 h. At the end of the incubation, MTT assays (In-Vitro toxicology MTT based assay kit, Sigma Aldrich, MO) were performed according to the manufacturer's protocol.

| Structure (SMILES) | Inflammation (PCC) 40 nM (NF-κB) | Inflammation (PCC) 80 nM (NF-κB) | Inflammation (PCC) 160 nM (NF-κB) | MTT (% Cell Survival) 40 nM (HeLa cells) | MTT (% Cell Survival) 80 nM (HeLa cells) | MTT (% Cell Survival) 160 nM (HeLa cells) |
| --- | --- | --- | --- | --- | --- | --- |
| OB(O)c1cccc(O)c1 [3-hydroxyphenylboronic acid] | −0.1136 | 0.04005 | 0 | 104.60% | 62.75% | 89.29% |
| CC(=O)c1ccc(B(O)O)s1 [5-acetyl-2-thiopheneboronic acid] | 0.02454 | 0.06312 | 0.2343 | 84.50% | 82.81% | 51.27% |
| CN(C)S(=O)(=O)c1ccccc1B(O)O [2-(N,N-dimethylsulphamoyl)benzene-boronic acid] | −0.1529 | −0.0404 | 0.03422 | 74.92% | 76.38% | 47.32% |
| O=Cc1sccc1B(O)O [2-formyl-3-thiopheneboronic acid] | −0.0993 | −0.0793 | 0.1262 | 55.3376% | 40.3684% | 46.21% |
| NC(=O)c1cccc(B(O)O)c1 [3-aminocarbonylphenylboronic acid] | −0.0696 | 0.07022 | 0.1748 | 101.02% | 77.93% | 29.19% |
| OB(O)c1cnn(Cc2ccccc2)c1 [1-benzyl-1H-pyrazole-4-boronic acid] | −0.1081 | −0.0841 | 0.03839 | 100.88% | 62.54% | 86.11% |
| N#Cc1ccccc1B(O)O [2-cyanophenylboronic acid] | −0.0641 | 0.0475 | 0.104 | 117.42% | 62.63% | 60.33% |
| N#Cc1ccc(B(O)O)s1 [5-cyanothiophene-2-boronic acid] | −0.01 | 0.1051 | 0.2434 | 80.56% | 40.00% | 44.78% |
| OB(O)c1cscc1Br [3-bromothiophene-4-boronic acid] | −0.0695 | 0.1568 | 0.1528 | 76.45% | 95.90% | 97.49% |
| COc1cccc(OC)c1B(O)O [2,6-dimethoxyphenylboronic acid] | −0.0679 | 0.03888 | 0.2607 | 92.66% | 78.05% | 48.60% |
| CCS(=O)(=O)c1ccc(B(O)O)cc1 [4-ethylsulfonyl-phenylboronic acid] | 0.00184 | 0.1802 | 0.129 | 67.61% | 66.47% | 37.46% |
| OB(O)c1cc2cc(Br)ccc2s1 [5-bromobenzo-B-thophene-2boronic acid] | −0.0244 | −0.01 | 0.1265 | 71.83% | 81.40% | 90.42% |
| OB(O)c1cccc2c1oc1ccccc12 [4-dibenzofuranboronic acid] | −0.0736 | −0.0438 | −0.128 | 71.48% | 75.50% | 70.50% |
| O=Cc1ccc(B(O)O)o1 [5-formyl-2-furanboronic acid] | 0.00989 | −0.0122 | 0.1132 | 77.18% | 94.08% | 50.14% |
| CC(C)[Si](C(C)C)(C(C)C)n1ccc(B(O)O)c1 [1-(triisopropylsilyl)pyrrol-E-3-boronic acid] | −0.0781 | 0.00445 | 0.169. | 72.92% | 65.92% | 56.94% |
| OB(O)c1ccsc1 [3-thienylboronic acid] | −0.0062 | 0.1457 | 0.05963 | 90.42% | 80.00% | 49.85% |
| CN(C)c1ccc(B(O)O)cc1 [4-(dimethylamino)phenylboronic acid] | −0.1318 | −0.0051 | 0.213 | 78.59% | 71.75% | 51.04% |
| C=C(B(O)O)c1ccccc1 [1-phenylvinylbornic acid] | −0.1145 | 0.03776 | 0 | 66.08% | 67.23% | 58.91% |
| O=C(O)c1cc(B(O)O)cc([N+](=O)[O-])c1 [3-carboxy-5-nitrophenylboronic acid] | −0.0136 | 0.03893 | 0.1227 | 54.3094% | 46.2431% | 33.3% |
| OB(O)c1cccc(OCc2ccccc2)c1 [3-(benzyloxy)phenylboronic acid] | −0.1159 | 0.0809 | 0.3768 | 99.83% | 71.94% | 28.92% |
| N#Cc1cc(B(O)O)ccc1F [3-cyano-4-fluorophenylboronic acid] | −0.0231 | 0.1014 | 0 | 89.30% | 60.46% | 47.56% |
| OB(O)c1cccc2c1Sc1ccccc1S2 [thianthrene-1-boronic acid] | −0.0683 | 0.0268 | 0.1094 | 64.19% | 61.32% | 81.10% |
| OB(O)c1cncc(Br)c1 [5-bromopyridine-3-boronic acid] | −0.038 | 0.1311 | 0.2913 | 134.748% | 37.2764% | 30.04% |
| O=[N+]([O-])/C=C/c1cccc(B(O)O)c1 [3-[(E)-2-nitrovinyl]phenylboronic acid] | −0.0456 | −0.0517 | 0.2058 | 116.00% | 96.38% | 73.93% |
| OB(O)c1ccc(Br)nc1 [2-bromopyridine-5-boronic acid] | 0.00604 | 0.078 | 0.1446 | 95.1013% | 120.589% | 35.78% |
